From patent US20210085630A1, “PHARMACEUTICAL COMPOSITION AND USE THEREOF IN PREPARING DRUG FOR TREATING TUMOR MULTI-DRUG RESISTANCE” (SICHUAN JIUZHANG BIOLOGICAL SCIENCE AND TECHNOLOGY CO., LTD., priority 2018, published 2021)
In brackets after ≈: the same amount, converted by molar mass.

Legend:
[1] = test system: drug-resistant A549 lung cancer cell lines; assay: MTT: IC50 of gemcitabine against drug-resistant A549 cells and drug-resistant index; type: cell-based, human
Experimental: A549 lung cancer cell lines were exposed to gemcitabine (2000 μg/ml) for 3 months, and centrifuged, to culture gemcitabine-resistant A549 cells. The cells were observed every day, and taken through 3 passages for about 3 days, to ensure cell viability.
Above-mentioned cell lines and drug-resistant cell lines in the logarithmic growth phase were selected, the cell concentration was adjusted to 8×10^3 cells/well, and then cells were seeded in a 96-well plate. For the experiment, there were three groups: blank group, control group and gemcitabine group. In the blank group, only medium was added, without inoculating cells; in the control group, medium was added, and cells were inoculated; in the gemcitabine group, medium was added, cells were inoculated, and then gemcitabine was added at different concentrations. The plates were placed in an incubator and incubated for 48 h, then 5 mg/ml MTT (20 μl) was added to each well, and the plate was further incubated for 4 h. […] Drug-resistant index=IC50 value of drug-resistant cells/IC50 value of sensitive cells

[2] = test system: gemcitabine-resistant Lewis lung cancer; assay: Tumor weight and inhibition rate, transplanted gemcitabine-resistant Lewis lung cancer; type: in vivo; conditions: gemcitabine-resistant Lewis lung cancer mice; test drug 30 mg/kg i.p. once a day 5 days, then gemcitabine 300 mg/kg every other day; positive drug gemcitabine 300 mg/kg
Experimental: Lewis lung cancer cell lines were induced by the increased gradient concentration of gemcitabine, and established by clone screening and cultured without drug before the experiment.
(§1) After the drug was removed from the drug-resistant cell lines, the cell concentration was adjusted to 1×10^7/ml with the culture medium. 1×10^7/ml of cells were subcutaneously injected into the right armpit of mice, 0.1 ml per mouse.
(§2) After the average diameter of tumor reached […], the mice were randomly divided into test drug group 1, test drug group 2, test drug group 3, test drug group 4, test drug group 5, test drug group 6, positive drug group, and negative group, respectively.
(§3) Test drug group: the test drug group was first intraperitoneally injected, once a day, 30 mg/kg/time, for 5 consecutive days; administration was stopped, and the positive drug was given by intraperitoneal injection on the next day; wherein the positive drug dacarbazine was administrated once every other day, 60 mg/kg/time; wherein the positive drug gemcitabine was given once every other day, 300 mg/kg/time.
(§4) Positive drug group: positive drug dacarbazine was given once every other day, 60 mg/kg/time; positive drug gemcitabine was given once every other day, 300 mg/kg/time.
(§5) Negative group: normal saline was intraperitoneally injected, once a day, for 15 consecutive days.
(§6) After completion of administration, the experiment was stopped, and the mice were killed by cervical dislocation and weighed. The tumor was stripped and weighed, to calculate the tumor inhibition rate.

PD-1/PD-L1 [3] = assay: PD-1/PD-L1 expression rate (immunohistochemical SP method), drug-resistant Lewis lung cancer tumor tissue; type: in vivo; conditions: transplanted tumor tissues of drug-resistant Lewis lung cancer in mice, Example 3 regimen
From the text: (§7) The positive expression rate of PD-1/PD-L1 in tumor tissues was detected by immunohistochemical SP method.

[4] = test system: CD4+T and CD8+T lymphocytes; assay: Number of CD4+T and CD8+T cells (immunofluorescence), drug-resistant Lewis lung cancer transplanted tumor; type: in vivo; conditions: transplanted tumor of drug-resistant Lewis lung cancer in mice, average of 6 high power fields
Experimental: (§8) The number of CD4+T and CD8+T lymphocytes was analyzed by immunofluorescence staining, and the average number of CD4+T and CD8+T cells infiltrated in 6 high power fields was counted.

[5] = test system: multi-drug resistant Lewis lung cancer; assay: Tumor weight and inhibition rate, transplanted multi-drug resistant Lewis lung cancer; type: in vivo, mice
Experimental: Lewis lung cancer cell lines were induced by the increased gradient concentration of dacarbazine and gemcitabine, and established by clone screening, then cultured without drug before the experiment.
as §1, §2, §3, §4, §5, §6

PD-1/PD-L1 [6] = assay: PD-1/PD-L1 expression rate in transplanted tumor tissues, multidrug resistance model; type: in vivo; conditions: transplanted tumor tissues of B16 melanoma mice with multidrug resistance (as titled), Example 5 regimen
From the text: as §7

[7] = test system: CD4+T and CD8+T lymphocytes; assay: Number of CD4+T and CD8+T lymphocytes in transplanted tumor of multidrug-resistant Lewis lung cancer mice; type: in vivo; conditions: average of 6 high power fields
Experimental: as §8

[8] = multi-drug resistant Lewis lung cancer mice, test drug 30 mg/kg i.p. 5 days, then gemcitabine 300 mg/kg or dacarbazine 60 mg/kg every other day

Compound: Nc1ccn([C@@H]2O[C@H](CO)[C@@H](O)C2(F)F)c(=O)n1 [Gemcitabine, gemcitabine, reference compound]
- IC50 ([1]; Homo sapiens, gemcitabine against drug-resistant A549 lung cancer cell lines, MTT, 48 h, read-out: IC50 Concentration): 3620 µg/mL (≈ 13.8 mM)
- Drug-resistant index ([1]; IC50 of drug-resistant cells/IC50 of sensitive cells, A549): 4.63
- Tumor inhibitory rate (%) [2]: 5.24%
- Tumor weight (g) [2]: 2.17 ± 0.89 ^ g
- Expression rate of PD-1/PD-L1, Positive PD-L1 (PD-1/PD-L1 [3]): 78.93%
- CD4 + T cells (number) [4]: 82.16 ± 1.42
- CD8 + T cells (number) [4]: 112.53 ± 4.28
- Tumor weight [5, 8]: 2.27 ± 0.38 g
- Tumor-inhibition rate (%) [5, 8]: 3.81%
- inhibitory effect on the tumor (in words) ([5]; multidrug-resistant Lewis lung cancer mice, positive drug groups): don't have obvious inhibitory effect
- Expression rate of PD-1/PD-L1, Positive PD-L1 (PD-1/PD-L1 [6]): 74.35%
- CD4 + T cells (number) [7]: 77.69 ± 8.96
- CD8 + T cells (number) [7]: 121.08 ± 10.32
